According to paper PMC3815476 (Biochemistry, 2013):

Target: Shp (Streptococcus pyogenes, UniProt Q06A48, M66A)
Test: biochemical

c1c[nH]cn1 [imidazole]
Kd: 210 ± 11 µM
